Test results as given in PMC3682184 (Experimental Parasitology, 2013).
Blank lines part the entries; values can stand above or below the molecule they belong to.

How the values were obtained:
[1] = target: T1, NADP-dependent secondary alcohol dehydrogenase (E. histolytica homologue of ADH-1) (Entamoeba histolytica, UniProt P35630); assay: NADPH oxidation at […] nm in cell extract, acetaldehyde reduction; format: biochemical
T1 sequence (P35630 1-366): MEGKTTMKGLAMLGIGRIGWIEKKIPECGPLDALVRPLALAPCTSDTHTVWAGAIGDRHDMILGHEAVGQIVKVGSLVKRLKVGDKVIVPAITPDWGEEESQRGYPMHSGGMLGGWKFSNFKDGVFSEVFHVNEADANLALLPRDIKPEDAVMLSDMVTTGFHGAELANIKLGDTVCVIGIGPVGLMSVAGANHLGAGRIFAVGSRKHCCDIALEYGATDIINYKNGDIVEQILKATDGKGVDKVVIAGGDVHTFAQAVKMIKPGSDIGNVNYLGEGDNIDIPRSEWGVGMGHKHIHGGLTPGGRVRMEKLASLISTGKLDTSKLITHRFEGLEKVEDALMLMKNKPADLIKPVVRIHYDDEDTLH

[2] = target: T2, NADP-dependent secondary alcohol dehydrogenase (ADH-1) (Trichomonas vaginalis, UniProt A2DJ40); assay: NADPH oxidation at […] nm, acetaldehyde reduction; format: biochemical
T2 sequence (A2DJ40 1-365): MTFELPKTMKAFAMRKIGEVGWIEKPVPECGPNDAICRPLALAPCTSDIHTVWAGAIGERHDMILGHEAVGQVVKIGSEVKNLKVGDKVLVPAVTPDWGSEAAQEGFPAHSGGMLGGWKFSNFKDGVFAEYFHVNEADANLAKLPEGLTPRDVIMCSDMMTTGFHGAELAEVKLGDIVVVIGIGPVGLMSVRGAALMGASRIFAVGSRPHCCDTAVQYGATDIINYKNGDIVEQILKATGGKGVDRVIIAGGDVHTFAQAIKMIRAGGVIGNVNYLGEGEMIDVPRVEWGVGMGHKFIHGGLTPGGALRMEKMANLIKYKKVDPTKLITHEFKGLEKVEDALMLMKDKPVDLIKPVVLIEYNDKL

purified protein [3] = substrate: NC(=O)c1ccc[n+]([C@@H]2O[C@H](COP(=O)(O)OP(=O)(O)OC[C@H]3O[C@@H](n4cnc5c(N)ncnc54)[C@H](OP(=O)(O)O)[C@@H]3O)[C@@H](O)[C@H]2O)c1; assay: purified protein; conditions: 100 mM 2-propanol, pH 6.75, 37 °C, varied: cofactor
purified protein [4] = substrate: CC(C)O; assay: purified protein; conditions: 1 mM NADP+, pH 6.75, 37 °C

inhibition at 200000 µM ([1]; read-out: Inhibition 2-propanol ^b aldehyde reduction): 80 ± 11% | IC50 [2]: 96 ± 11 mM
Molecule: CC(C)O [2-propanol]

inhibition at 100 µM ([1]; read-out: Inhibition CoA ^c aldehyde reduction): 62 ± 22% | IC50 [2]: 0.063 ± 0.017 mM
Molecule: CC(C)(COP(=O)(O)OP(=O)(O)OC[C@H]1O[C@@H](n2cnc3c(N)ncnc32)[C@H](O)[C@@H]1OP(=O)(O)O)[C@@H](O)C(=O)NCCC(=O)NCCS [coenzyme A]

B1: NADP-dependent secondary alcohol dehydrogenase (ADH-1) (Trichomonas vaginalis G3) (protein)
chain: T2 sequence (A2DJ40 1-365)
Km (purified protein [3]): 0.0412 ± 0.0044 mM | Km (purified protein [4]): 11.57 ± 1.25 mM
